Read-outs that look alike come from different tables or passages of the source.
Key:
[1] = cited from earlier work

| Compound | Water Solubility (water) [g/100 ml H2 O] | further results |
| --- | --- | --- |
| O=C(O)COCC1OC2OC3C(COCC(=O)O)OC(OC4C(COCC(=O)O)OC(OC5C(COCC(=O)O)OC(OC6C(COCC(=O)O)OC(OC7C(COCC(=O)O)OC(OC8C(COCC(=O)O)OC(OC1C(O)C2O)C(O)C8O)C(O)C7O)C(O)C6O)C(O)C5O)C(O)C4O)C(O)C3O (stereo not drawn) [Heptacarboxylic acid β-CD] | > 300 |  |
| C[N+](C)(C)CC1OC2OC3C(CO)OC(OC4C(CO)OC(OC5C(CO)OC(OC6C(CO)OC(OC7C(CO)OC(OC8C(CO)OC(OC1C(O)C2O)C(O)C8O)C(O)C7O)C(O)C6O)C(O)C5O)C(O)C4O)C(O)C3O.[Cl-] (stereo not drawn) [Monotrimethylammonium (chloride) β-CD] |  | Water Solubility (25° C.): > 200 g/100 ml H2 O |
| Hydroxypropyl β-CD |  | Water Solubility [1]: 115 g/100 ml H2 O |
| mono-6-dihydroxyphosphonyl-6-deoxy β-CD [Monophosphoric acid β-CD] | > 250 |  |
